This is an account of results in publication PMC11443494, “Dynamical responses predict a distal site that modulates activity in an antibiotic resistance enzyme” (Chemical Science, 2024).

The subject of one assay is SHV-1. Details: method as in Liakopoulos et al. [2]. Conditions: ND = no detected hydrolysis, ref Liakopoulos et al. [2]; cited from earlier work.
In the next assay the test system is SHV-38. Details: method as in Poirel et al [3]. As to conditions: ref Poirel et al [3]; cited from earlier work.
The next assay has as its system SHV-2. Details: method as in Liakopoulos et al. [2]. As to conditions: ref Liakopoulos et al. [2], cited from earlier work.
The target of assay [1] is T1, KPC-2 (Klebsiella pneumoniae, UniProt Q9F663).
T1 construct: made in house
The assay is classed as biochemical. On the procedure:
(§1) Antibiotic hydrolysis was measured at 25 °C in kinetics buffer (10 mM HEPES, pH 7.5 and 150 mM NaCl, 100 μg per mL bovine […] albumin (BSA)). […] Hydrolysis was followed using Greiner half area 96-well plates and a BMG CLARIOstar Plus microplate reader. GraphPad Prism 9.3.1 (GraphPad Software, La Jolla, CA, USA; https://www.graphpad.com) was used to calculate kinetic parameters. Initial rates of antibiotic hydrolysis measured across a range of antibiotic concentrations were used to calculate steady-state parameters according to the Michaelis–Menten equation.

In assay [2] the target is T2, KPC-2^G89D (Klebsiella pneumoniae, UniProt Q9F663, G88D).
T2 construct: made in house; host or cells: E. coli
Briefly: Steady-state kinetics of β-lactam hydrolysis by KPC-2^G89D. As to conditions: for decrease in catalytic efficiency (kcat/KM): KPC-2^G89D compared to wild-type KPC-2; for Kcat / K M: KPC-2^G89D, 25 °C, standard error in parentheses; for Kcat: 10 mM HEPES pH 7.5, 150 mM NaCl, BSA; for K M: pH 7.5. It counts as biochemical. On the procedure: as §1

Assay [3] deals with T2, KPC-2^G89D. Briefly: Pre-steady-state (stopped-flow tryptophan fluorescence) binding kinetics, KPC-2^G89D. On the procedure:
(§2) Pre-steady state kinetics were measured by mixing meropenem with KPC-2 or KPC-2^G89D (both 10 nM concentration) in an Applied Photophysics SX20 stopped-flow spectrometer connected to a photodiode array detector in kinetics buffer. Data were fitted from 0.005 to 0.3 s for both 5 repeats of each of KPC-2 : meropenem and KPC-2^G89D : meropenem. k1 and k−1 were calculated from the gradient and the y-intercept of the kobsvs. substrate concentration curves. KD is calculated using the following equation: [drawing 1]
(§3) Figure S11: Binding kinetics of meropenem calculated using pre-steady state kinetics. a) Kinetic model for binding and hydrolysis of β-lactam substrates by serine β-lactamases. KD is calculated by k-1 / k1. Normalised tryptophan fluorescence curves, averaged over 5 transients, measured from 0.005 s to 0.25 s, for meropenem binding to KPC-2 (b) and KPC-2G89D (both at 10 nM) (c) were used to calculate kobs over a range of concentrations using one phase decay curve fitting. kobs was plotted for KPC-2 (d) and KPC-2G89D (e), and a linear regression used to calculate the y-intercept (k-1) and the slope (k 1). The calculated KD values are 3.7 μM and 5.9 μM for KPC-2 and KPC-2G89D. […]

Assay [4] addresses T1, KPC-2. Briefly: Pre-steady-state (stopped-flow tryptophan fluorescence) binding kinetics, KPC-2. On the procedure: as §2, §3
For assay [5], the target named is T2, KPC-2^G89D. Briefly: Inhibition of nitrocefin hydrolysis (IC50), KPC-2^G89D. Conditions: nitrocefin 200 μM, 10 minute pre-incubation of enzyme and inhibitor. The assay is classed as biochemical.
Assay [6] addresses T1, KPC-2. Briefly: Inhibition of nitrocefin hydrolysis (IC50), KPC-2. The assay is classed as biochemical. Conditions: wild-type KPC-2; nitrocefin 200 μM, 10 minute pre-incubation. On the procedure:
Both inhibitors were dissolved in kinetics buffer.

The mark [7] stands for this setting: KPC-2, 25 °C, 10 mM HEPES pH 7.5, 150 mM NaCl, BSA, standard error in parentheses.
The mark [8] stands for this setting: KPC-2, 25 °C, pH 7.5, standard error in parentheses.

Each structure is given as a SMILES string. Like-named read-outs stand apart in the source and are kept apart here.

T1 sequence (Q9F663 25-293 limits assumed): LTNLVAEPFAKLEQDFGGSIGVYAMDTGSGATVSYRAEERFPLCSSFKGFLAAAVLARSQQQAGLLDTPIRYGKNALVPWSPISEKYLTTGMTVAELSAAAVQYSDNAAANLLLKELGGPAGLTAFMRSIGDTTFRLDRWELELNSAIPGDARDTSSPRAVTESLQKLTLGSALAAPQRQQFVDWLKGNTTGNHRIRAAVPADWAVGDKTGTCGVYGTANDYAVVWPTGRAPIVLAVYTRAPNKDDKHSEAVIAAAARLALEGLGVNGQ
T2 sequence (Q9F663 25-293 G88D): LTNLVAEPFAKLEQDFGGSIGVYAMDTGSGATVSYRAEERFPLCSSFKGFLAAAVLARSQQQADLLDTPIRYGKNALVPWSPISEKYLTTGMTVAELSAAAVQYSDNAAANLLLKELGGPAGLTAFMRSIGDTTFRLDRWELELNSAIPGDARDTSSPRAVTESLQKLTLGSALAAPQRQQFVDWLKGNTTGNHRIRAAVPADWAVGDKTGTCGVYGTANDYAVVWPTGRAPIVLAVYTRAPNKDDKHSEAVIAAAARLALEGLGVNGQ

In the case of `CC(=O)OCC1=C(C(=O)O)N2C(=O)[C@@H](NC(=O)Cc3cccs3)[C@H]2SC1` [Cephalothin], in the assay with SHV-1, the Kcat is 10 s⁻¹ and the Km is 26 µM. In the assay on SHV-38, the Kcat was 5 s⁻¹ and the Km is 100 µM.
`CC1(C)S[C@@H]2[C@H](NC(=O)Cc3ccccc3)C(=O)N2[C@H]1C(=O)O` [Benzylpenicillin]: the values for the Kcat in the assay with SHV-1 and in the assay with SHV-38 were 455 s⁻¹ and 100 s⁻¹, respectively. In addition, the Km in the assay with SHV-1 is 20 µM; with SHV-38, 13 µM; with SHV-2 (ND = no detected hydrolysis), 3.8 µM. Further, the maximal velocity (Vmax) with SHV-2 was 100 µM/min.
Turning to `C[C@@H](O)[C@H]1C(=O)N2C(C(=O)O)=C(SCCN=CN)C[C@H]12` [Imipenem], the Kcat on KPC-2 [1] (setting [7]) is 22 (0.43) s^−1. The “K M” value at KPC-2 [1] (setting [8]) is 72 (3.2) μM. For the same compound, in the assay with SHV-38, the Kcat was 0.01 s⁻¹ and the Km is 24 µM. On KPC-2^G89D [2], the “decrease in catalytic efficiency (kcat/KM)” value is 10 fold, the Kcat is recorded as 2.8 (0.12) s^−1 and the “K M” value is listed as 68.9 (10.2) μM.
`CC(C)(O/N=C(\C(=O)N[C@@H]1C(=O)N2C(C(=O)[O-])=C(C[n+]3ccccc3)CS[C@H]12)c1csc(N)n1)C(=O)O` [Ceftazidime]: the Kcat with SHV-38 was 110 s⁻¹. Further, the Michaelis-Menten constant (Km) in the assay on SHV-38 is 3800 µM; with SHV-2 (ND = no detected hydrolysis) it was 24 µM. For the same compound, the Vmax in the assay with SHV-2 was 6.5 µM/min.
As to `CC1(C)S[C@@H]2[C@H](NC(=O)[C@H](N)c3ccccc3)C(=O)N2[C@H]1C(=O)O` [Ampicillin], at KPC-2 [1] (pH 7.5), the “K M” value is recorded as 271 (44.7) μM and the Kcat was 82.3 (3.92) s^−1. For the same compound, on KPC-2^G89D [2], the Kcat is on record as 160 (5.83) s^−1 and the “K M” value is listed as 201 (36.3) μM.
Regarding `C[C@@H](O)[C@H]1C(=O)N2C(C(=O)O)=C(S[C@@H]3CN[C@H](C(=O)N(C)C)C3)[C@H](C)[C@H]12` [Meropenem], the Kcat on KPC-2 [1] (setting [7]) is listed as 21.5 (0.12) s^−1; at KPC-2^G89D [2], 0.2 (1 × 10^−2) s^−1. Also, the “K M” value is 7.1 (1.01) μM on KPC-2 [1] (setting [8]) and 7.9 (1.57) μM at KPC-2^G89D [2]. The “decrease in catalytic efficiency (kcat/KM)” value on KPC-2^G89D [2] was determined as 100 fold. Besides, the Kd on KPC-2^G89D [3] was 5.9 µM; at KPC-2 [4], 3.7 µM.
Turning to `CO/N=C(\C(=O)N[C@@H]1C(=O)N2C(C(=O)O)=C(COC(C)=O)CS[C@H]12)c1csc(N)n1` [Cefotaxime], in the assay on SHV-38, the Kcat is 1 s⁻¹ and the Michaelis constant (Km) is 800 µM. In addition, in the assay on SHV-2 (ND = no detected hydrolysis), the Kcat is 11 s⁻¹ and the Michaelis constant (Km) is 18 µM. The Vmax in the assay on SHV-2 was 70 µM/min.
Take `O=C(NNC(=O)[C@@H]1CC[C@@H]2CN1C(=O)N2OS(=O)(=O)O)[C@@H]1CCCNC1` [Zidebactam]: the IC50 at KPC-2^G89D [5] turned out to be 0.7 nM; against KPC-2 [6] it was 0.06 nM.

One may read the Km as the concentration of substrate that gives half-maximal velocity. As usually defined, the Vmax is the top rate of the reaction or transport when substrate is in excess. For orientation: Kd means the free concentration of one partner at which half of the binding sites on the other are occupied at equilibrium, for simple one-to-one binding. Read a low Kd as a tighter complex. Usually IC50 stands for the point on the concentration scale where inhibition reaches its midpoint. Read a low IC50 as inhibition by little substance.
